Measured values from ChEMBL document CHEMBL1201862, “PubChem BioAssay data set” (2004).
The source made the active and inactive calls.

Key:
[1] = inhibitors of firefly luciferase expression or activity, dose response, H4 neuroglioma cells, luminescence (AID 1990); assay type: functional, cell-based
[2] = ZM109 Env clade C HIV-1 fusion inhibitors, dose response, HeLa effector, CEM target cells, luciferase, cherry-pick (AID 652058); assay type: functional, cell-based
[3] = inhibitors of SNCA 5'UTR-driven translation, confirmation, luminescence, H4 neuroglioblastoma cells, dose confirmation (AID 2454); assay type: functional, cell-based;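 also: H4 neuroglioblastoma cells carrying an alpha-synuclein 5'UTR luciferase reporter; potency for inhibition of the luciferase signal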
HEK293 [4] = experiment: TNF Induced NF-kB Luciferase in 293-NF-kB-Luc Stable Cells. [Related pubchem assays: 1266, 1299, 1269, 1373, 1292, 1290, 1302, 1371, 1283, 1270, 1295, 1271, 1375, 1294, 1374, 1281, 1293, 1291, 1289, 1280, 465, 1368, 1364, 1282, 1372, 1365, 1369, 1370, 1367, 1366 ]; assay type: functional, cell-based; details: Homo sapiens
Jurkat = experiment: SAR Analysis of small molecule inhibitors of T-cell specific antigen receptor-induced NF-kB activation in a Jurkat cell line using a luminescence assay - Set 2. [Related pubchem assays (depositor defined):AID435003, AID435012, AID465]; assay type: functional, cell-based; details: Homo sapiens
[5] = inhibitors of clade B AD8 Env fusion, dose response, cell-based, cherry-pick (AID 652062); assay type: functional;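 also: luciferase signal from cell-cell fusion driven by HIV-1 clade B AD8 Env; potency is for inhibitors of fusion seen as a drop in luminescence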
[6] = target: T1, Luciferin 4-monooxygenase (Photinus pyralis, UniProt P08659); experiment: Counter Screen for Luciferase-based Assay Positives. [Related pubchem assays: 620, 618, 411 ]
HEK293 [7] = experiment: inhibitors of LMP1-driven NF-kB reporter, dose response, cell-based, HEK293, luciferase, cherry-pick (AID 588343); assay type: functional; details: Homo sapiens
HEK293 [8] = experiment: SAR Analysis of small molecule inhibitors of T-cell specific antigen receptor-induced NF-kB activation in a HEK-293T cell line using a luminescence assay - Set 2. [Related pubchem assays (depositor defined):AID435003, AID435012, AID489026]; assay type: functional, cell-based; details: Homo sapiens
[9] = inhibitors of SNCA 5'UTR-driven reporter translation, confirmation, H4 neuroglioma cells, luminescence (AID 1988); assay type: functional, cell-based
HT-1080 = experiment: cytotoxicity in HT1080 fibrosarcoma cells, cell-based, fluorescence readout (AID 620); assay type: functional; details: Homo sapiens
[10] = luciferase reporter signal reduction – luminescence, H4-C neuroglioblastoma cells, dose response (AID 2458); assay type: functional, cell-based;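 also: H4 neuroglioblastoma cells stably carrying a luciferase reporter gene fusion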
[11] = off-target signal loss in HeLa-CEM21 co-culture – HeLa F-luc CTL cells, cherry-picked, counter-screen for HIV-1 Env fusion inhibitor project, dose response (AID 652040); assay type: functional, cell-based;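 also: potency for signal decrease marking cytotoxic or nonspecific inhibition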
[12] = inhibitors of HIV Env-driven cell fusion, dose response, cherry-pick (AID 652057); assay type: functional, cell-based
HEK293 [13] = experiment: Cytotoxicity assay in HEK293 cells. [Related pubchem assays (depositor defined):AID1266, AID1269, AID1270, AID1271, AID1280, AID1281, AID1282, AID1283, AID1287, AID1289, AID1290, AID1291, AID1292, AID1293, AID1294, AID1295, AID1299, AID1302, AID1364, AID1365, AID1366, AID1367, AID1369, AID1370, AID1371, AID1372, AID1373, AID1374, AID1375, AID1384 …; assay type: functional, cell-based; details: Homo sapiens
[14] = cytotoxicity in HEK-293T cells, dose response, cytotoxicity control for BCR NF-kB inhibitor project, luminescence, B-cell screen hits (AID 489021); assay type: functional, cell-based;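 also: HEK-293T cells carrying an NF-kB luciferase reporter; cells exposed to compound for about 14 hours before viability readout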
HEK293 [15] = experiment: cytotoxicity in HEK293T NF-kB-Luc cells, SAR follow-up, cytotoxicity control for NF-kB activator project, cell-based, resazurin fluorescence (AID 493251); assay type: functional; details: Homo sapiens
[16] = target: T1, Luciferin 4-monooxygenase; experiment: In vitro luciferase assay using purified luciferase. [Related pubchem assays: 1299, 1270, 1295, 1375, 1287, 1281, 1293, 1291, 1289, 1280, 465, 1364, 1282, 1372, 1365, 1370, 1367, 1366, 1266, 1373, 1292, 1290, 1302, 1371, 1283, 1271, 1294, 1374, 1368, 1369 ]
HEK293 [17] = experiment: PMA/Ionomycin induced NF-kB luciferase assay in 293- NF-kB-Luc stable cells. [Related pubchem assays: 1299, 1270, 1295, 1375, 1287, 1281, 1293, 1291, 1289, 1280, 465, 1364, 1282, 1372, 1365, 1370, 1367, 1366, 1269, 1373, 1292, 1290, 1302, 1371, 1283, 1271, 1294, 1374, 1368, 1369 ]; assay type: functional, cell-based; details: Homo sapiens
cells = assay type: functional, cell-based
[18] = Luminescence-based counterscreen assay for KLF5 inhibitors: dose response cell-based high throughput screening assay to identify cytotoxic compounds using the IEC-6 intestinal epithelial cell line. [Related pubchem assays: 1700 (Primary screen.), 1834 (Confirmation screen.), 1858 (Summary AID.), 1905 (Counterscreen.)]; assay type: functional
[19] = target: T2, Sentrin-specific protease 8 (Homo sapiens, UniProt Q96LD8); experiment: SENP8 protease inhibitors, SAR follow-up, biochemical, luminescence (AID 504501); assay type: functional
T2 sequence (Q96LD8 whole entry): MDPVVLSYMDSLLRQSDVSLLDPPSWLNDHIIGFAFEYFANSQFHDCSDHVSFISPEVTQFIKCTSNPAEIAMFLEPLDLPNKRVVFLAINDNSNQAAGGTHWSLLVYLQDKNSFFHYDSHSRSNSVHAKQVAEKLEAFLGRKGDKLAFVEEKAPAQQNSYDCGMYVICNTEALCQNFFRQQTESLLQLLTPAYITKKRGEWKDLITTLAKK

[20] = target: T3, Sentrin-specific protease 7 (Homo sapiens, UniProt Q9BQF6); experiment: SENP7 protease inhibitors, SAR follow-up, biochemical, luminescence (AID 504497); assay type: functional
T3 sequence (Q9BQF6 whole entry): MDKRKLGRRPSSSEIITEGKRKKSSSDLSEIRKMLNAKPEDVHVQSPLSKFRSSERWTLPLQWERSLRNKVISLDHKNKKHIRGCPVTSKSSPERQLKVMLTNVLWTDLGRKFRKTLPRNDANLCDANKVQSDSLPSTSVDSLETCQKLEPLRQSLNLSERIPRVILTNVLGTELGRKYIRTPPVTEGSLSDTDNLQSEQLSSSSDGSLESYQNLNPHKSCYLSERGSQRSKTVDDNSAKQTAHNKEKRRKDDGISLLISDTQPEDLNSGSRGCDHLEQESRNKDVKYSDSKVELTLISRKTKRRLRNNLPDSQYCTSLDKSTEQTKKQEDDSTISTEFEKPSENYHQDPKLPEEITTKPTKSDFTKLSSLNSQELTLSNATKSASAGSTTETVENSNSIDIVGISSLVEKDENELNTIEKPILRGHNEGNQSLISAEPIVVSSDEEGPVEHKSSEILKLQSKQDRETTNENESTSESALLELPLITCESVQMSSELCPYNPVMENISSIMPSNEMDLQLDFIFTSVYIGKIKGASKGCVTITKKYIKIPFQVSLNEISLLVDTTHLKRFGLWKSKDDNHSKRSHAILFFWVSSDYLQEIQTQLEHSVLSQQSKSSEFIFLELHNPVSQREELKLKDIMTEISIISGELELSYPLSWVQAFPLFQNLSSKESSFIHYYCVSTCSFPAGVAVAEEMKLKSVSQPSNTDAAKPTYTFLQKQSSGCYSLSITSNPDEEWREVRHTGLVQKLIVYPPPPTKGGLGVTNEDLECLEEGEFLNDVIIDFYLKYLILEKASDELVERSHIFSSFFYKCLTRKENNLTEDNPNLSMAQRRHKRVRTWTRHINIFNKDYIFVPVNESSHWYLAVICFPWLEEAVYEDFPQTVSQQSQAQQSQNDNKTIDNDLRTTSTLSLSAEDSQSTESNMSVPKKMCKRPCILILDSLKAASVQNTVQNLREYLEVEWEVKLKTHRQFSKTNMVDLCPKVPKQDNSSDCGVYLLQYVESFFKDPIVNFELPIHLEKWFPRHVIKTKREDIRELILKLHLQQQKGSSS

Caspase-3 = target: T4, Caspase-3 (Homo sapiens, UniProt P42574); experiment: SAR Analysis of small molecule inhibitors of Sentrin-specific proteases (SENPs) using a Caspase-3 Selectivity assay. [Related pubchem assays (depositor defined):AID2540, AID2599, AID434973, AID489001]; assay type: functional
T4 sequence (P42574 whole entry): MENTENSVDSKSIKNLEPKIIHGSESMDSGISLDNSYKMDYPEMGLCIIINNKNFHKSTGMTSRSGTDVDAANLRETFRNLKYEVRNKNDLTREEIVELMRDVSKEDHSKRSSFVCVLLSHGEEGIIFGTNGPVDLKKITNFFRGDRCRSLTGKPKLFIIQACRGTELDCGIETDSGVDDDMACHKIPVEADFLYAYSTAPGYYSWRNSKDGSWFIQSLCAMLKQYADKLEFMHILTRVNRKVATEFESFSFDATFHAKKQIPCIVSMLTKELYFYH

[21] = target: T5, Sentrin-specific protease 6 (Homo sapiens, UniProt Q9GZR1); experiment: SAR Analysis of small molecule inhibitors of Sentrin-specific protease 6 (SENP6) using a Luminescent assay. [Related pubchem assays (depositor defined):AID2582, AID2599]; assay type: functional
T5 sequence (Q9GZR1 whole entry): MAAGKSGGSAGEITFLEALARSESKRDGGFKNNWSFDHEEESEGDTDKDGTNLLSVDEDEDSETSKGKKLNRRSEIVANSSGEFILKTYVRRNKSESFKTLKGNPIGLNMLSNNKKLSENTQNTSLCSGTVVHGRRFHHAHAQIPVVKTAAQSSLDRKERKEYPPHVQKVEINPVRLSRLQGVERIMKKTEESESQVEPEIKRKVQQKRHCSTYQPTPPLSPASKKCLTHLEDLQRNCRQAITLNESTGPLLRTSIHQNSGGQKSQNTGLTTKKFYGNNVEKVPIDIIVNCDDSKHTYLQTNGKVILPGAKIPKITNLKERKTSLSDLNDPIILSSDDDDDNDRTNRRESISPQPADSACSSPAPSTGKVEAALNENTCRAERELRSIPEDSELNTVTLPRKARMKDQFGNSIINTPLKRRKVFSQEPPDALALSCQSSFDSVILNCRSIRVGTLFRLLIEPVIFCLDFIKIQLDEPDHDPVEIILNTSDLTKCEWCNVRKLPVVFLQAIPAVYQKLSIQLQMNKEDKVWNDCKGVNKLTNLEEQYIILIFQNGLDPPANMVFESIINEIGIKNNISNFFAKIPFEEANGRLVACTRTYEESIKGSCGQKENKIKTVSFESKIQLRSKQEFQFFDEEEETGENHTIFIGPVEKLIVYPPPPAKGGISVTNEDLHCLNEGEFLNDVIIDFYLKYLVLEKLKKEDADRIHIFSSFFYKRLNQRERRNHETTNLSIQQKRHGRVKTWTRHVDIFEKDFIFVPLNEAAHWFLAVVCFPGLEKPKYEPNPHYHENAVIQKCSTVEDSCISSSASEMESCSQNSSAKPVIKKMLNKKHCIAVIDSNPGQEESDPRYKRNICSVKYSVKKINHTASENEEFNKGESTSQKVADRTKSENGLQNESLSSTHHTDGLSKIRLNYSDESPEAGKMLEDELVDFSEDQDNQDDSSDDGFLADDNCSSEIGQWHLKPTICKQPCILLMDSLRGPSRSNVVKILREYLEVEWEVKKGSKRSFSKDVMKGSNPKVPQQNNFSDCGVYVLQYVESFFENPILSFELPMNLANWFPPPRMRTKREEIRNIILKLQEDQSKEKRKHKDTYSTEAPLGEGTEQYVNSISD

[22] = HEp-2 cell cytotoxicity, dose response, cytotoxicity control for RSV inhibitor project, HTS (AID 2410); assay type: functional; details: human respiratory syncytial virus
[23] = target: Latent membrane protein 1 (Human herpesvirus 4 (strain B95-8), UniProt P03230); experiment: TES1-eGFP NF-kB reporter inhibition versus Tet-On dsRED, dose response, selectivity assay for LMP1 NF-kB inhibitor project, imaging, HEK293T, dual-color eGFP/dsRED, cherry-picks (AID 588398); assay type: functional, cell-based
Chain of Latent membrane protein 1 (P03230 whole entry): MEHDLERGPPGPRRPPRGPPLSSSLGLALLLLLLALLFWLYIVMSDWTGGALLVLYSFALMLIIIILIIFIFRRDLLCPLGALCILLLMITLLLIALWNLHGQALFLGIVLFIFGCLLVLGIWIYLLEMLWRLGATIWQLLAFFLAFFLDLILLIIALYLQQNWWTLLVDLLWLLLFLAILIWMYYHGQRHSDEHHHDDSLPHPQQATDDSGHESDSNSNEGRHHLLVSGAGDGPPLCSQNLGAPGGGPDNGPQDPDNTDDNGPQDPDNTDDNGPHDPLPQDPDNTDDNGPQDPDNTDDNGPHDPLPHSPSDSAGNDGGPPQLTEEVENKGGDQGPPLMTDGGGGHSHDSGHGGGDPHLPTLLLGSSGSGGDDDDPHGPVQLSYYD

T1 sequence (P08659 whole entry): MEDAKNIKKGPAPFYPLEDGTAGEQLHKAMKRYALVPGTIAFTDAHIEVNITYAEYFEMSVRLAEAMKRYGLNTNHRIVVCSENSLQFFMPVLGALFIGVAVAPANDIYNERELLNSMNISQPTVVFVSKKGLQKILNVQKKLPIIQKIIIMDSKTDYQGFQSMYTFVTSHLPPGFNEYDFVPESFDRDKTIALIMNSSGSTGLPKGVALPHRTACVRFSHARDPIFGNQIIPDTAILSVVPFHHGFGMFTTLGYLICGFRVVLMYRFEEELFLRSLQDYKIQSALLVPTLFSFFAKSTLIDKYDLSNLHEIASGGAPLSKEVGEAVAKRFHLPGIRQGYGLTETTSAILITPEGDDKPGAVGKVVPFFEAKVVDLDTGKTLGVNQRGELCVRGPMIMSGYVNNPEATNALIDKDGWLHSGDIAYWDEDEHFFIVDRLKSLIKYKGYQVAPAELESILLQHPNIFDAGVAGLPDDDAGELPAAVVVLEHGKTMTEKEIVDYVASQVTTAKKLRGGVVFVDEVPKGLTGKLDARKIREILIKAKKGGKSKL

CC(C)(C)c1ccc(-c2noc(CCC(N)=O)n2)cc1
inactive: EC50 (HEK293 [13]) 14900 nM | IC50 [14] > 80000 nM | IC50 (HEK293 [15]) > 80000 nM
> 39800 nM (not active): IC50 [18]
> 8000 nM (not active): EC50 [16]
active: EC50 [1] < 100 nM | AC50 [2] < 260 nM | EC50 [3] 203 nM | EC50 (HEK293 [4]) 528 nM | IC50 (Jurkat) 260 nM | AC50 [5] < 260 nM | EC50 [6] 16500 nM | AC50 (HEK293 [7]) 401 nM | IC50 (HEK293 [8]) 480 nM | EC50 [9] < 100 nM | EC50 [10] 470 nM | AC50 [11] < 260 nM | AC50 [12] 344 nM | EC50 (HEK293 [17]) 443 nM | EC50 (cells) 517 nM
> 50000 nM (not active): EC50 (HT-1080)

CCc1cccc2c(C(=O)CN3C(=O)c4ccccc4S3(=O)=O)c[nH]c12
inactive: IC50 [19] > 99000 nM | IC50 [20] > 99000 nM | IC50 (Caspase-3) > 99000 nM | IC50 [21] > 99000 nM

CCn1c2ccccc2c2cc(/C=N/n3cnnc3)ccc21
active: AC50 (HEK293 [7]) 11500 nM | CC50 [22] 18200 nM | AC50 [23] 4050 nM
